Results published in US20050191348A1 (priority 2004, published 2005).

Key:
[1] = test system: SH-SY5Y neuroblastoma cells; test: Cell death under serum deprivation (apoptotic cell death detection ELISA), SH-SY5Y; assay type: cell-based, human; conditions: 24 h serum deprivation, significant at 1 and 10 μM
Description: (ii) Cell culture, viability measurements and experimental treatments. Two different neuronal cell lines were used: the rat PC12 and the human neuroblastoma SH-SY5Y cells.
SH-SY5Y neuroblastoma cells were plated in 100-mm culture dishes and cultured in Dulbecco's modified Eagle's medium (DMEM; 4500 mg/l glucose), containing 10% fetal calf serum (FCS) and a mixture of 1% penicillin/streptomycin/nystatin.
Cell cultures were incubated at 37° C. in a humid 5% CO2-95% air environment. For cell viability assays, cells were treated with various drugs in serum free media containing 0.1% BSA.
(iii) Measurement of cell death.
In order to test cell viability, PC12 cells and SH-SY5Y neuroblastoma cels were incubated under serum deprivation and were untreated or treated with rasagiline (0.1. 1 or 10 μM) for 24 hours.
In order to test cell viability, PC12 cells and SH-SY5Y neuroblastoma cels were incubated under serum deprivation and were untreated or treated with propargylamine (0.1. 1 or 10 μM) for 24 hours.

sAPPα = sAPPα release into medium of PC12 cells; assay type: cell-based, rat; conditions: PC12, 0.1, 1 and 10 μM, 3 h
Description: For the experiments, cells were seeded (2×10^6) onto 100-mm plates (for SH-SY5Y cells) or T75 flasks (for PC12 cells) in culture medium supplemented with full serum for 48 h. The cells were replaced with fresh medium containing 0.5% FCS for an additional 24 h (subconfluent culture), and then the experiments were performed in fresh medium containing 0.5% FCS for the indicated time periods at 37° C. After incubation with various drugs, the conditioned media were collected, centrifuged at 3500 g (10 min, 4° C.) to remove cell debris, and the cleared supernatants were concentrated 10-fold by lyophilization.
(vii) Determination of sAPP. […] Immunoreactivity was detected using anti-mouse IgG-conjugated with HRP and an enhanced chemiluminescence method (Amersham, Pharmacia Biotech, UK). Blots were developed for different times to span a linear range of response, and the relative intensity of immunoreactive bands on the exposed films was quantified by computer-assisted densitometry program (Quantity One, Bio-Rad, Hercules, Calif., USA).
We further characterized, in detail, the effect of rasagiline on APP processing and the signaling pathways that are involved. Thus, SH-SY5Y neuroblastoma cells were incubated for 3 h without or with increasing concentrations of rasagiline (0.1, 1 and 10 μM), and sAPPα was measured in the media as described in Materials and Methods. […]

MAPK = MAPK activation (phospho-p44/42 MAPK immunoblot) in PC12 cells; assay type: cell-based, rat; conditions: PC12, 0.1, 1 and 10 μM, 0.5 h
Description: (viii) Extracellular signal-regulated kinase (ERK) activity. The kinase activity of the ERKs was measured using the MAPK assay kit (Cell Signaling Technology) according to the manufacturer's protocol. In brief, for kinase activity assays, PC12 cells were grown in 6-well plates (5×10^5 cells/well). Eighteen to twenty-four hours before experiments, the medium was replaced with DMEM with 0.5% FCS and treated as described in the figures. Experimental treatments were performed in 1 ml medium containing 0.5% FCS, with the vehicle or test drugs and/or inhibitors at 37° C., as described in the figures. After treatment, reactions were stopped by placing cells on ice and aspirating the medium. Cells were harvested in 50 mM Tris-HCl, pH 8.0, 150 mM NaCl, 5 mM EDTA, 1 mM DTT, 1% Triton X-100, and protease- and phosphatase-inhibitor cocktails. Protein concentration was determined by the Bradford method. As described previously (Yogev-Falach et al., 2002), each cell lysate, containing 30 μg protein, was separated on 4-12% SDS-polyacrylamide electrophoresis gels, immunoblotted, and identified using phospho-p44/42 MAPK (Thr202/Tyr204) antibody or p44/42 MAPK antibody. Data are representative of three to six independent experiments.
To study the effect of rasagiline on MAPK activation, PC12 cells were treated for 0.5 h with increasing concentrations of rasagiline (0.1, 1 and 10 μM), and quantification of the phospho-MAPK blots were normalized using the total MAPK blots, or PC12 cells were preincubated for 15 min with vehicle alone, or with PD98059 (30 μM) or GF109203X (2.5 μM) and then incubated without or with rasagiline (10 μM) for 0.5 h. Aliquots of cell lysates were then subjected to immunoblot analysis and probed with anti-phospho-MAPK (top blots) and anti-MAPK (bottom blots).
For the effect of propargylamine on MAPK activation, PC12 cells were treated for 0.5 h with increasing concentrations of propargylamine (0.1, 1 and 10 μM). Aliquots of cell lysates were then subjected to immunoblot analysis and probed with anti-phospho-MAPK and anti-MAP kinase. Quantification of the phospho-MAPK were normalized using the total MAPK blots.

C#CCN [propargylamine]
cell death induced by serum deprivation [1]: significantly reduced cell death | sAPPα released into the medium (sAPPα): significant, dose-dependent increase in sAPPα | MAPK phosphorylation (MAPK): induced MAPK phosphorylation
